This is an account of results in US20150099774A1, “Pyrido [3,4-C] [1,9] phenanthroline and 11, 12 dihydropyrido [3,4-C] [1,9] phenanthroline derivatives and the use thereof, particularly for treating cancer” (CHRISTIAN-ALBRECHTS-UNIVERSITAET ZU KIEL, priority 2012, published 2015).

Holding throughout (assay type): cell-based, human
One experiment deals with CCRF-CEM. Description: NCI in vitro anti-tumor screening, 1 μM, SRB. The settings on record: c = 1 μM; CCRF-CEM (Leukemia); two days.
A further experiment relates to HL-60(TB). Description: NCI in vitro anti-tumor screening, 1 μM, SRB. The settings on record: c = 1 μM; HL-60(TB) (Leukemia); two days.
A further experiment relates to MOLT-4. Description: NCI in vitro anti-tumor screening, 1 μM, SRB. Particulars: c = 1 μM; MOLT-4 (Leukemia); two days.
The test system of another experiment is RPMI-8226. Description: NCI in vitro anti-tumor screening, 1 μM, SRB. The settings on record: c = 1 μM; RPMI-8226 (Leukemia); two days.
Another experiment concerns SR. Description: NCI in vitro anti-tumor screening, 1 μM, SRB. Particulars: c = 1 μM; SR (Leukemia); two days.
A further experiment has as its system K-562. Description: NCI in vitro anti-tumor screening, 1 μM, SRB. The settings on record: c = 1 μM; K-562 (Leukemia); two days.
The test system of a further experiment is LOX IMVI. Description: NCI in vitro anti-tumor screening, 1 μM, SRB. Particulars: c = 1 μM; LOX IMVI (Melanoma); two days.
The test system of another experiment is MALME-3M. Description: NCI in vitro anti-tumor screening, 1 μM, SRB. The settings on record: c = 1 μM; MALME-3M (Melanoma); two days.
Another experiment concerns M14. Description: NCI in vitro anti-tumor screening, 1 μM, SRB. The settings on record: c = 1 μM; M14 (Melanoma); two days.
Another experiment relates to SK-MEL-2. Description: NCI in vitro anti-tumor screening, 1 μM, SRB. Particulars: c = 1 μM; SK-MEL-2 (Melanoma); two days.
The subject of a further experiment is SK-MEL-28. Description: NCI in vitro anti-tumor screening, 1 μM, SRB. Particulars: c = 1 μM; SK-MEL-28 (Melanoma); two days.
Another experiment has as its system SK-MEL-5. Description: NCI in vitro anti-tumor screening, 1 μM, SRB. The settings on record: c = 1 μM; SK-MEL-5 (Melanoma); two days.
The next experiment deals with UACC-257. Description: NCI in vitro anti-tumor screening, 1 μM, SRB. The settings on record: c = 1 μM; UACC-257 (Melanoma); two days.
Another experiment has as its system UACC-62. Description: NCI in vitro anti-tumor screening, 1 μM, SRB. The settings on record: c = 1 μM; UACC-62 (Melanoma); two days.
The next experiment deals with MCF7. Description: NCI in vitro anti-tumor screening, 1 μM, SRB. Particulars: c = 1 μM; MCF7 (Breast cancer); two days.
A further experiment has as its system MDA-MB-231/ATCC. Description: NCI in vitro anti-tumor screening, 1 μM, SRB. Particulars: c = 1 μM; MDA-MB-231/ATCC (Breast cancer); two days.
The test system of a further experiment is HS-578T. Description: NCI in vitro anti-tumor screening, 1 μM, SRB. Particulars: c = 1 μM; HS-578T (Breast cancer); two days.
For another experiment, the system named is BT-549. Description: NCI in vitro anti-tumor screening, 1 μM, SRB. The settings on record: c = 1 μM; BT-549 (Breast cancer); two days.
The next experiment deals with T-47D. Description: NCI in vitro anti-tumor screening, 1 μM, SRB. Particulars: c = 1 μM; T-47D (Breast cancer); two days.
In a further experiment the test system is MDA-MB-468. Description: NCI in vitro anti-tumor screening, 1 μM, SRB. The settings on record: c = 1 μM; MDA-MB-468 (Breast cancer); two days.
For the next experiment, the system named is Leukemia cell lines. Description: NCI in vitro anti-tumor screening, 1 μM, mean of leukemia lines. Particulars: c = 1 μM.
The test system of a further experiment is Melanoma cell lines. Description: NCI in vitro anti-tumor screening, 1 μM, mean of melanoma lines. Particulars: c = 1 μM.
The test system of the next experiment is Breast cancer cell lines. Description: NCI in vitro anti-tumor screening, 1 μM, mean of breast cancer lines. The settings on record: c = 1 μM.
A further experiment has as its system 60 tumor cell lines. Description: NCI in vitro anti-tumor screening, 1 μM, all 60 cell lines. Particulars: c = 1 μM; for growth inhibitory effect (in words): leukemia, melanoma, breast cancer lines of Tables I and II.

With `COc1cccc(-c2cc3ccncc3c3nc(N)c4cnccc4c23)c1OC`, the Percentage cell growth in the experiment on CCRF-CEM came out at 74.9%; in the experiment on HL-60(TB), 118.7%; in the experiment with MOLT-4, 90.1%; in the experiment with RPMI-8226, 96.8%; in the experiment with SR it was 83.5%; in the experiment with K-562 it was 88.8%. Further, the Percentage cell growth with LOX IMVI amounted to 89.3%; in the experiment with MALME-3M, 123.8%; with M14 it was 94.8%; with SK-MEL-2 it was 117.3%; with SK-MEL-28, 119.5%; with SK-MEL-5 it was 86.3%. The Percentage cell growth in the experiment on UACC-257 was determined as 126.3%; in the experiment with UACC-62, 99.1%; in the experiment with MCF7, 89.9%; with MDA-MB-231/ATCC, 90.8%; in the experiment on HS-578T, 90.5%; in the experiment with BT-549, 95.0%. Also, the values for the Percentage cell growth in the experiment with T-47D and in the experiment with MDA-MB-468 were 97.4% and 81.5%, respectively. Further, the “Percentage cell growth, Arithmetic mean” value in the experiment with Leukemia cell lines was determined as 92.1%; in the experiment with Melanoma cell lines it was 95.2%; in the experiment with Breast cancer cell lines it was 90.9%. Further, the “Percentage cell growth, Arithmetic mean of all 60 cell lines” value with 60 tumor cell lines was 98.0%. In the experiment on 60 tumor cell lines, the “growth inhibitory effect (in words)” value is on record as “disadvantageous”.
For the compound `COc1cc(-c2cc3ccncc3c3nc(N)c4cnccc4c23)cc(OC)c1OC`, the Percentage cell growth with CCRF-CEM is reported as 7.2%; in the experiment on HL-60(TB), −0.9%; in the experiment with MOLT-4 it was −8.9%; in the experiment on RPMI-8226 it was 33.5%; in the experiment with SR, 13.1%; in the experiment with K-562, 29.9%. Moreover, the Percentage cell growth with LOX IMVI is listed as −30.4%; in the experiment on MALME-3M, 35.5%; in the experiment on M14, 9.5%; with SK-MEL-2, 65.3%; in the experiment with SK-MEL-28, 41.5%; in the experiment on SK-MEL-5, 2.2%. Also, the Percentage cell growth with UACC-257 was 30.9%; in the experiment on MCF7, 22.8%; in the experiment with HS-578T, −2.5%; in the experiment on BT-549, 8.31%; with T-47D it was 36%; in the experiment on MDA-MB-468, −23.6%. Further, the results for the “Percentage cell growth, Arithmetic mean” value with Leukemia cell lines, with Melanoma cell lines and with Breast cancer cell lines were 12.3%, 22.1% and 8.2%, respectively. In addition, in the experiment on 60 tumor cell lines, the “Percentage cell growth, Arithmetic mean of all 60 cell lines” value is given as 16.8%. For the same compound, in the experiment with 60 tumor cell lines, the “growth inhibitory effect (in words)” value is on record as “best results”.
For `Nc1nc2c3cnccc3cc(-c3ccco3)c2c2ccncc12`, the Percentage cell growth in the experiment with CCRF-CEM is listed as 12.4%; in the experiment with HL-60(TB) it was 13.9%; with MOLT-4, −0.9%; with RPMI-8226, 62.7%; in the experiment on SR, 7.8%; in the experiment with K-562, 51.6%. Moreover, the Percentage cell growth in the experiment with LOX IMVI was 2.3%; in the experiment on MALME-3M, 59.7%; in the experiment on M14, 37.0%; with SK-MEL-2, 91.8%; in the experiment with SK-MEL-28, 42.4%; with SK-MEL-5, 20.0%. In addition, the Percentage cell growth with UACC-257 was found to be 69.8%; in the experiment on UACC-62 it was 41.0%; in the experiment with MCF7, 25.0%; in the experiment on MDA-MB-231/ATCC it was 74.9%; in the experiment on BT-549, 16.2%; with T-47D, 48.4%. Further, the Percentage cell growth in the experiment on MDA-MB-468 amounted to 35.6%. Also, the “Percentage cell growth, Arithmetic mean” value was 24.6% with Leukemia cell lines, 45.5% in the experiment on Melanoma cell lines and 40.0% in the experiment on Breast cancer cell lines. For the same compound, in the experiment on 60 tumor cell lines, the “Percentage cell growth, Arithmetic mean of all 60 cell lines” value amounted to 39.1%. Also, in the experiment with 60 tumor cell lines, the “growth inhibitory effect (in words)” value is “good cytotoxic effects”.
